Counter-ions that a name gives are not always drawn.
tested on: Jurkat HIV-luciferase clones; experiment: Jurkat latency reversal assay; type: cell-based; details: Homo sapiens, Jurkat, 48 h
Method: Jurkat HIV-luciferase clones were maintained in RPMI medium 1640 (Gibco by Life Technologies) containing 10% (vol/vol) fetal bovine serum (SAFC/Sigma-Aldrich) and 25 units/mL penicillin, 25 units/mL streptomycin (Gibco by Life Technologies), and were split 1:4 every 3 to 4 days to maintain a cell density of ˜0.3 to 1 million cells/mL. The Jurkat clones were maintained with the addition of 500 nM EFV in the medium. Three Jurkat cell clones (C16, I15, and N6), each harboring one or two integrated HIV proviruses expressing the luciferase reporter gene, were added at equal amounts for a total of 5,000 cells per well to 384-well plates containing compound titrations. Dose-response testing was performed on compounds dissolved in dimethyl sulfoxide (DMSO, Fisher Scientific, Merelbeke, Belgium) dispensed in duplicate serial 3-fold, 14-point titrations using a D300e Digital Droplet Dispenser (Hewlett-Packard) to give final assay concentrations of 10 μM to 2.1 pM in 50 μL of medium at 0.5% DMSO (vol/vol) final concentration. Cells and compound were incubated at 37° C. for 48 hours, unless otherwise indicated, followed by the addition of 20 μL of Steady-Glo® Luciferase (Promega). Luminescence resulting from the induction of the virally expressed luciferase was measured using an EnVision 2102 Multilabel Plate Reader (Perkin Elmer). Dose-response relationships were analyzed with GraphPad PRISM 6 using a four-parameter logistic regression model to calculate the concentration of compound that gives half-maximal response (EC50) and the maximal percent activation compared to the vehicle control.

| SMILES | EC50 |
| --- | --- |
| CN[C@@H](C)C(=S)N[C@H]1CCS[C@H]2CC(C)(C)[C@@H](C(=O)N[C@H](COCc3ccc(COC[C@@H](NC(=O)[C@H]4N5C(=O)[C@@H](NC(=S)[C@H](C)NC)CCS[C@H]5CC4(C)C)c4ccccc4)cc3)c3ccccc3)N2C1=O [compound 43, (4S,4′S,7S,7′S,9aS,9a′S)-N,N′-((1S,1′S)-((1,4-phenylenebis(methylene))bis(oxy))bis(1-phenylethane-2,1-diyl))bis(8,8-dimethyl-4-((S)-2-(methylamino)propanethioamido)-5-oxooctahydropyrrolo[2,1-b][1,3]thiazepine-7-carboxamide) dihydrochloride] | 43.4 nM |
| CN[C@@H](C)C(=O)N[C@H]1CCS[C@H]2CC(C)(C)[C@@H](C(=O)N[C@H]3c4ccccc4C[C@H]3C(=O)NCc3ccc(CNC(=O)[C@@H]4Cc5ccccc5[C@@H]4NC(=O)[C@H]4N5C(=O)[C@@H](NC(=O)[C@H](C)NC)CCS[C@H]5CC4(C)C)cc3)N2C1=O [compound 45, (4S,7S,9aS)-N-[(1R,2R)-2-({[4-({[(1R,2R)-1-[(4S,7S,9aS)-8,8-dimethyl-4-[(2S)-2-(methylamino)propanamido]-5-oxo-octahydropyrrolo[2,1-b][1,3]thiazepine-7-amido]-2,3-dihydro-1H-inden-2-yl]formamido}methyl)phenyl]methyl}carbamoyl)-2,3-dihydro-1H-inden-1-yl]-8,8-dimethyl-4-[(2S)-2-(methylamino)propanamido]-5-oxo-octahydropyrrolo[2,1-b][1,3]thiazepine-7-carboxamide] | 183 nM |
| CN[C@@H](C)C(=O)N[C@H]1CCS[C@H]2CC(C)(C)[C@@H](C(=O)N[C@H](C(=O)NCC#CC#CCNC(=O)[C@@H](NC(=O)[C@H]3N4C(=O)[C@@H](NC(=O)[C@H](C)NC)CCS[C@H]4CC3(C)C)c3ccccc3)c3ccccc3)N2C1=O [compound 30, (4S,4′S,7S,7′S,9aS,9a′S)-N,N′-((1S,1′S)-(hexa-2,4-diyne-1,6-diylbis(azanediyl))bis(2-oxo-1-phenylethane-2,1-diyl))bis(8,8-dimethyl-4-((S)-2-(methylamino)propanamido)-5-oxooctahydropyrrolo[2,1-b][1,3]thiazepine-7-carboxamide) dihydrochloride] | 65.4 nM |
| CN[C@@H](C)C(=O)N[C@H]1CCS[C@H]2CC(C)(C)[C@@H](C(=O)N[C@H]3c4ccccc4C[C@H]3OCCCCCCCCCCO[C@@H]3Cc4ccccc4[C@@H]3NC(=O)[C@H]3N4C(=O)[C@@H](NC(=O)[C@H](C)NC)CCS[C@H]4CC3(C)C)N2C1=O [compound 57, (4S,4′S,7S,7′S,9aS,9a′S)-N,N′-((1S,1′S,2R,2′R)-(decane-1,10-diylbis(oxy))bis(2,3-dihydro-1H-indene-2,1-diyl))bis(8,8-dimethyl-4-((S)-2-(methylamino)propanamido)-5-oxooctahydropyrrolo[2,1-b][1,3]thiazepine-7-carboxamide) dihydrochloride] | 8.5 nM |
| CN[C@@H](C)C(=S)N[C@H]1CCS[C@H]2CC(C)(C)[C@@H](C(=O)N[C@H]3c4ccccc4C[C@H]3C(=O)NCc3ccc(CNC(=O)[C@@H]4Cc5ccccc5[C@@H]4NC(=O)[C@H]4N5C(=O)[C@@H](NC(=S)[C@H](C)NC)CCS[C@H]5CC4(C)C)cc3)N2C1=O [compound 44, (4S,7S,9aS)-N-[(1R,2R)-2-({[4-({[(1R,2R)-1-[(4S,7S,9aS)-8,8-dimethyl-4-[(2S)-2-(methylamino)propanethioamido]-5-oxo-octahydropyrrolo[2,1-b][1,3]thiazepine-7-amido]-2,3-dihydro-1H-inden-2-yl]formamido}methyl)phenyl]methyl}carbamoyl)-2,3-dihydro-1H-inden-1-yl]-8,8-dimethyl-4-[(2S)-2-(methylamino)propanethioamido]-5-oxo-octahydropyrrolo[2,1-b][1,3]thiazepine-7-carboxamide] | 20.4 nM |
| CN[C@@H](C)C(=O)N[C@H]1CCS[C@H]2CC(C)(C)[C@@H](C(=O)Nc3ccc(Cc4ccc(NC(=O)[C@H]5N6C(=O)[C@@H](NC(=O)[C@H](C)NC)CCS[C@H]6CC5(C)C)cc4)cc3)N2C1=O [compound 1, (4S,4′S,7S,7′S,9aS,9a′S)-N,N′-(methylenebis(4,1-phenylene))bis(8,8-dimethyl-4-((S)-2-(methylamino)propanamido)-5-oxooctahydropyrrolo[2,1-b][1,3]thiazepine-7-carboxamide)] | 47 nM |
| CN[C@@H](C)C(=S)NC1CCS[C@H]2CC(C)(C)[C@@H](C(=O)N[C@H]3c4ccccc4CC[C@H]3C(=O)NCc3ccc(CNC(=O)[C@@H]4CCc5ccccc5C4NC(=O)[C@H]4N5C(=O)[C@@H](NC(=S)[C@H](C)NC)CCS[C@H]5CC4(C)C)cc3)N2C1=O (stereo in doubt) [compound 10, (4S,4′S,7S,7′S,9aS,9a′S)-N,N′-((1R,1′R,2R,2′R)-(((1,4-phenylenebis(methylene))bis(azanediyl))bis(carbonyl))bis(1,2,3,4-tetrahydronaphthalene-2,1-diyl))bis(8,8-dimethyl-4-((S)-2-(methylamino)propanethioamido)-5-oxooctahydropyrrolo[2,1-b][1,3]thiazepine-7-carboxamide)] | 43.4 nM |
| CN[C@@H](C)C(=O)N[C@H]1CCS[C@H]2CC(C)(C)[C@@H](C(=O)N[C@H]3c4ccccc4C[C@H]3OCCCOCCCO[C@@H]3Cc4ccccc4[C@@H]3NC(=O)[C@H]3N4C(=O)[C@@H](NC(=O)[C@H](C)NC)CCS[C@H]4CC3(C)C)N2C1=O [compound 51, (4S,7S,9aS)-N-[(1S,2R)-2-[3-(3-{[(1S,2R)-1-[(4S,7S,9aS)-8,8-dimethyl-4-[(2S)-2-(methylamino)propanamido]-5-oxo-octahydropyrrolo[2,1-b][1,3]thiazepine-7-amido]-2,3-dihydro-1H-inden-2-yl]oxy}propoxy)propoxy]-2,3-dihydro-1H-inden-1-yl]-8,8-dimethyl-4-[(2S)-2-(methylamino)propanamido]-5-oxo-octahydropyrrolo[2,1-b][1,3]thiazepine-7-carboxamide] | 24 nM |
| CN[C@@H](C)C(=S)N[C@H]1CCS[C@H]2CC(C)(C)[C@@H](C(=O)N[C@H](C(=O)N3CCN(C(=O)[C@@H](NC(=O)[C@H]4N5C(=O)[C@@H](NC(=S)[C@H](C)NC)CCS[C@H]5CC4(C)C)c4ccccc4)CC3)c3ccccc3)N2C1=O [compound 27, (4S,4′S,7S,7′S,9aS,9a′S)-N,N′-((1S,1′S)-piperazine-1,4-diylbis(2-oxo-1-phenylethane-2,1-diyl))bis(8,8-dimethyl-4-((S)-2-(methylamino)propanethioamido)-5-oxooctahydropyrrolo[2,1-b][1,3]thiazepine-7-carboxamide) dihydrochloride] | 52.2 nM |
| CN[C@@H](C)C(=O)N[C@H]1CCS[C@H]2CC(C)(C)[C@@H](C(=O)N[C@H]3c4ccccc4C[C@H]3C(=O)N3CCN(C(=O)[C@@H]4Cc5ccccc5[C@@H]4NC(=O)[C@H]4N5C(=O)[C@@H](NC(=O)[C@H](C)NC)CCS[C@H]5CC4(C)C)CC3)N2C1=O [compound 46, (4S,7S,9aS)-N-[(1R,2R)-2-{4-[(1R,2R)-1-[(4S,7S,9aS)-8,8-dimethyl-4-[(2S)-2-(methylamino)propanamido]-5-oxo-octahydropyrrolo[2,1-b][1,3]thiazepine-7-amido]-2,3-dihydro-1H-indene-2-carbonyl]piperazine-1-carbonyl}-2,3-dihydro-1H-inden-1-yl]-8,8-dimethyl-4-[(2S)-2-(methylamino)propanamido]-5-oxo-octahydropyrrolo[2,1-b][1,3]thiazepine-7-carboxamide] | 127 nM |
| CN[C@@H](C)C(=O)N[C@H]1CCS[C@H]2CC(C)(C)[C@@H](C(=O)Nc3ccc(CCc4ccc(NC(=O)[C@H]5N6C(=O)[C@@H](NC(=O)[C@H](C)NC)CCS[C@H]6CC5(C)C)cc4)cc3)N2C1=O [compound 5, (4S,4′S,7S,7′S,9aS,9a′S)-N,N′-(ethane-1,2-diylbis(4,1-phenylene))bis(8,8-dimethyl-4-((S)-2-(methylamino)propanamido)-5-oxooctahydropyrrolo[2,1-b][1,3]thiazepine-7-carboxamide) ditrifluoroacetate] | 53.6 nM |
| CN[C@@H](C)C(=S)N[C@H]1CCS[C@H]2CC(C)(C)[C@@H](C(=O)N[C@H]3c4ccccc4C[C@H]3OCCCCO[C@@H]3Cc4ccccc4[C@@H]3NC(=O)[C@H]3N4C(=O)[C@@H](NC(=S)[C@H](C)NC)CCS[C@H]4CC3(C)C)N2C1=O [compound 17, (4S,4′S,7S,7′S,9aS,9a′S)-N,N′-((1S,1′S,2R,2′R)-(butane-1,4-diylbis(oxy))bis(2,3-dihydro-1H-indene-2,1-diyl))bis(8,8-dimethyl-4-((S)-2-(methylamino)propanethioamido)-5-oxooctahydropyrrolo[2,1-b][1,3]thiazepine-7-carboxamide) dihydrochloride] | 20.7 nM |

Source: US11492361B2, “Compounds useful in HIV therapy” (GlaxoSmithKline Intellectual Property Development Limited, priority 2018, dated 2022)
